Data: patent publication US20070197609A1, “SALTS OF INDUCIBLE NITRIC OXIDE SYNTHASE DIMERIZATION INHIBITORS” (KALYPSYS, INC., priority 2005, published 2007)

Assays:
[1] = Solubility in selected solvents; type: physicochemical; settings: thermodynamic from solid
Protocol: The solubility of Compound 2 acetate was investigated with regard to potential process and formulation solvents. The solubility of Compound 2 acetate was evaluated by preparing saturated solution of Compound 2 in the selected solvents, filtering the samples (0.22 μm), diluting, and determining concentration by external standard HPLC using a rapid analysis assay.

[2] = Moisture sorption/desorption analysis for hygroscopicity; type: physicochemical; settings: for hygroscopicity: moisture sorption/desorption behavior; for initial weight loss upon equilibration: at 5% RH; for total weight gain: at 95% RH
Excerpt: This weight was gradually regained by approximately 75% RH with a total weight gain of approximately 0.64% at 95% RH. Slightly more weight was lost during desorption with litle hysterisis.
The moisture sorption/desorption profiles of Compound 2 hydrochloride, Compound 2 acetate, and compound 2 adipate are presented in Table 7. […] Relative humidity was then increased and weight measurements taken at regular intervals. Change is given as percent of original sample.

hiNOS = target: T1, hiNOS (Homo sapiens, UniProt P35228); settings: DAN assay, HEK293 cells transfected with NOS isoform; cited from earlier work
T1 construct: expressed in transfected cells; host or cells: HEK293

hnNOS = target: T2, hnNOS (Homo sapiens, UniProt P29475); settings: DAN assay, HEK293 cells transfected with NOS isoform; cited from earlier work
T2 construct: expressed in transfected cells; host or cells: HEK293

heNOS = target: T3, heNOS (Homo sapiens, UniProt P29474); settings: DAN assay, HEK293 cells transfected with NOS isoform; cited from earlier work
T3 construct: expressed in transfected cells; host or cells: HEK293
T3 sequence (P29474 2-1203 limits assumed): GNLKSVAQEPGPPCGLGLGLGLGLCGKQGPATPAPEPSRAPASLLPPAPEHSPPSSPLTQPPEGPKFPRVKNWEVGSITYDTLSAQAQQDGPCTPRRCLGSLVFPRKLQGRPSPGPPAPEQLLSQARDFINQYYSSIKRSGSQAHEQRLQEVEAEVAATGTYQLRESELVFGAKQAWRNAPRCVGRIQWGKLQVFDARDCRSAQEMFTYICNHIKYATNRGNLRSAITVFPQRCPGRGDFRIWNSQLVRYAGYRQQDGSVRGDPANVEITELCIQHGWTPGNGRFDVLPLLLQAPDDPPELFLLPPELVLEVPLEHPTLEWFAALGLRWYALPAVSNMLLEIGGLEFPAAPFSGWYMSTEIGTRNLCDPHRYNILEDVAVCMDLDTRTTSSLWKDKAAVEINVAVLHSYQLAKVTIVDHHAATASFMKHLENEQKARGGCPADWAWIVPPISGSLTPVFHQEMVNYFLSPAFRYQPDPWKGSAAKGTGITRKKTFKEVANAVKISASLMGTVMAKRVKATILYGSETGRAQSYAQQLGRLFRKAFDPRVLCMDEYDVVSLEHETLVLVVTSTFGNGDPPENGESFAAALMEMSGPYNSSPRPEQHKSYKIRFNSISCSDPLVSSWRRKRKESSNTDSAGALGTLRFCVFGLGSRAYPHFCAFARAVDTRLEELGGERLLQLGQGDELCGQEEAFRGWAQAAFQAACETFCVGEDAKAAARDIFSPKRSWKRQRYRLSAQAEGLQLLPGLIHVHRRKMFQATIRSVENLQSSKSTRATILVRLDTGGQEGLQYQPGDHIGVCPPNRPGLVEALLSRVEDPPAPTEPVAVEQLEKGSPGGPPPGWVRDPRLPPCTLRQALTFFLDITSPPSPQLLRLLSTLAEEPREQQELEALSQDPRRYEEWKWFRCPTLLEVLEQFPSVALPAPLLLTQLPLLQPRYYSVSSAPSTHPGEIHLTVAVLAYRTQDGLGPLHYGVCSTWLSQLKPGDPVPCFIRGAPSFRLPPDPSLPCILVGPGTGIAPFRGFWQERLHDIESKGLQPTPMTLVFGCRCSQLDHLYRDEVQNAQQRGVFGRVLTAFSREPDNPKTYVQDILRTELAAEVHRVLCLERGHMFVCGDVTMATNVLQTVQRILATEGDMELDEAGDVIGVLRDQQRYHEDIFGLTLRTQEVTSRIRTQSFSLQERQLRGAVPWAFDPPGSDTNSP

LPS Induced iNOS = settings: rat; cited from earlier work

T2 sequence (P29475 whole entry, canonical isoform): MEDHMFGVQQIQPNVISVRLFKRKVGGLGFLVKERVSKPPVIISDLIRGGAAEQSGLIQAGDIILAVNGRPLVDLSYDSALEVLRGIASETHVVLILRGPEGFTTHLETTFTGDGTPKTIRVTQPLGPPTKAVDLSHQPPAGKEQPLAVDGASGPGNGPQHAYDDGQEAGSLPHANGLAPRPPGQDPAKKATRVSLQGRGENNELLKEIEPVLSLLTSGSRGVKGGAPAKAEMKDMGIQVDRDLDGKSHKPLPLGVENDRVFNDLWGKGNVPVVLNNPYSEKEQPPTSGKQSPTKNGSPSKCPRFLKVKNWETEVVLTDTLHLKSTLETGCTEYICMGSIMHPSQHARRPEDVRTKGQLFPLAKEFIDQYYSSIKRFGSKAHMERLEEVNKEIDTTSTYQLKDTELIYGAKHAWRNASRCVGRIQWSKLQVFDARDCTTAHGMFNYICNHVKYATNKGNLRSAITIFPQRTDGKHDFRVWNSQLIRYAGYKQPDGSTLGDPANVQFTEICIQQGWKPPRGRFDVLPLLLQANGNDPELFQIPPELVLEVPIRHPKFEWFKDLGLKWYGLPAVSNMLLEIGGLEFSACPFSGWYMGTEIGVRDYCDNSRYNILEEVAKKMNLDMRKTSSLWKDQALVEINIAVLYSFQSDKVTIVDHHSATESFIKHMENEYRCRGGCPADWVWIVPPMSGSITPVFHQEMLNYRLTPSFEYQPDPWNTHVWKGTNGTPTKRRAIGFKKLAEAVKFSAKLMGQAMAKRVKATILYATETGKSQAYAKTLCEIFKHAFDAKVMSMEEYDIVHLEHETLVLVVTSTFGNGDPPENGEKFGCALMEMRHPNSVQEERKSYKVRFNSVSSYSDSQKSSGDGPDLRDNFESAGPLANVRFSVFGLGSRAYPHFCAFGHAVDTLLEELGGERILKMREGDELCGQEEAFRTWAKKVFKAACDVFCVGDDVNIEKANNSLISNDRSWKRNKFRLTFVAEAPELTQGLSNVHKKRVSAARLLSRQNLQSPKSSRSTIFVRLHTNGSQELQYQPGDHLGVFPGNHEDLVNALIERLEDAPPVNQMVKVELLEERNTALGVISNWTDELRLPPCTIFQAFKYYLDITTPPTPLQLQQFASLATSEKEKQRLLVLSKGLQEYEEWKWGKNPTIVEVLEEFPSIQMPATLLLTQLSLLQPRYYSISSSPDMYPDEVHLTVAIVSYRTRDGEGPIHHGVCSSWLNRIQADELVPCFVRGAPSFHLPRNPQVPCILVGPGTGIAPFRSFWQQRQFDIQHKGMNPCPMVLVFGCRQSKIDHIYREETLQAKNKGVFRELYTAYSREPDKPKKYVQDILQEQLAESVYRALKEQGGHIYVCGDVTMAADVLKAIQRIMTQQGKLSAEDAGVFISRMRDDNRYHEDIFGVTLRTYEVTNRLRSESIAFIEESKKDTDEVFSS

Molecule	Weight % Change, Adsorption ([2]; 5 Percent Relative Humidity) [%]	Weight % Change, Desorption ([2]; 5 Percent Relative Humidity) [%]	Weight % Change, Adsorption ([2]; 15 Percent Relative Humidity) [%]	Weight % Change, Desorption ([2]; 15 Percent Relative Humidity) [%]	Weight % Change, Adsorption ([2]; 25 Percent Relative Humidity) [%]	Weight % Change, Desorption ([2]; 25 Percent Relative Humidity) [%]	Weight % Change, Adsorption ([2]; 35 Percent Relative Humidity) [%]	Weight % Change, Desorption ([2]; 35 Percent Relative Humidity) [%]	Weight % Change, Adsorption ([2]; 45 Percent Relative Humidity) [%]	Weight % Change, Desorption ([2]; 45 Percent Relative Humidity) [%]	Weight % Change, Adsorption ([2]; 55 Percent Relative Humidity) [%]	Weight % Change, Desorption ([2]; 55 Percent Relative Humidity) [%]	Weight % Change, Adsorption ([2]; 65 Percent Relative Humidity) [%]	Weight % Change, Desorption ([2]; 65 Percent Relative Humidity) [%]	Weight % Change, Adsorption ([2]; 75 Percent Relative Humidity) [%]	Weight % Change, Desorption ([2]; 75 Percent Relative Humidity) [%]	Weight % Change, Adsorption ([2]; 85 Percent Relative Humidity) [%]	Weight % Change, Desorption ([2]; 85 Percent Relative Humidity) [%]	Weight % Change, Adsorption ([2]; 95 Percent Relative Humidity) [%]	hygroscopicity [2]	further results
CC(=O)O.CN(CCCNCc1ccc2c(c1)OCO2)c1nc(-n2ccnc2)ns1 [Compound 2 acetate, N′-Benzo[1,3]dioxol-5-ylmethyl-N-(3-imidazol-1-yl-[1,2,4]thiadiazol-5-yl)-N-methyl-propane-1,3-diamine acetate salt]	<1	<1	<1	<1	<1	<1	<1	<1	<1	<1	<1	<1	<1	<1	<1	<1	<3	<3	<5	significantly hygroscopic at high RH	solubility ([1]; acetonitrile, organic solvent or mixture): 2100 µg/mL; solubility ([1]; dichloromethane, organic solvent or mixture): 10000 µg/mL; solubility ([1]; ethanol, organic solvent or mixture): 8500 µg/mL; solubility ([1]; ethyl acetate, organic solvent or mixture): 2000 µg/mL; solubility ([1]; hexanes, organic solvent or mixture): 3 µg/mL; solubility ([1]; isopropanol, organic solvent or mixture): 3700 µg/mL; solubility ([1]; methanol, organic solvent or mixture): 58300 µg/mL; solubility ([1]; propylene glycol, organic solvent or mixture): 36700 µg/mL; solubility ([1]; water): 44600 µg/mL; solubility ([1]; water:ethanol:propylene glycol (40:40:20), aqueous with cosolvent or surfactant or cyclodextrin): 101000 µg/mL; Weight % Change, Desorption ([2]; 95 Percent Relative Humidity): <5%; weight gain ([2]; over the range of 5 to 85% relative humidity (RH)): minimal weight gain
CN(CCCNCc1ccc2c(c1)OCO2)c1nc(-n2ccnc2)ns1.O=C(O)CCCCC(=O)O [Compound 2 adipate, N′-Benzo[1,3]dioxol-5-ylmethyl-N-(3-imidazol-1-yl-[1,2,4]thiadiazol-5-yl)-N-methyl-propane-1,3-diamine adipate salt]	<0	<0	<0	<0	<0	<0	<0	<0	<1	<1	<1	<1	<1	<1	<2	<2	<3	<3	>6	hygroscopic, especially at elevated humidities	Weight % Change, Desorption ([2]; 95 Percent Relative Humidity): >6%; initial weight loss upon equilibration [2]: less than 1%; total weight gain [2]: over 6%
CN(CCCNCc1ccc2c(c1)OCO2)c1nc(-n2ccnc2)ns1.Cl [Compound 2 hydrochloride, N′-Benzo[1,3]dioxol-5-ylmethyl-N-(3-imidazol-1-yl-[1,2,4]thiadiazol-5-yl)-N-methyl-propane-1,3-diamine hydrochloride salt]	<−1	<−2	<−1	<−1	<−1	<−1	<−1	<−1	<−1	<−1	<−1	<0	<0	<0	<0	<1	<1	<2	<5	not hygroscopic	Weight % Change, Desorption ([2]; 95 Percent Relative Humidity): <5%; initial weight loss upon equilibration [2]: < 1%; total weight gain [2]: < 5%
CN(CCCNCc1ccc2c(c1)OCO2)c1nc(-n2ccnc2)ns1 [Compound 2, N′-Benzo[1,3]dioxol-5-ylmethyl-N-(3-imidazol-1-yl-[1,2,4]thiadiazol-5-yl)-N-methyl-propane-1,3-diamine]	–	–	–	–	–	–	–	–	–	–	–	–	–	–	–	–	–	–	–	not hygroscopic	EC50 (hiNOS): < 1 µM; EC50 (hnNOS): > 1 µM; EC50 (heNOS): > 10 µM; LPS Induced iNOS In Vivo, ED50 (LPS Induced iNOS): + ((+), ED50 <10); initial weight loss upon equilibration [2]: approximately 0.16%; total weight gain [2]: approximately 0.64%
Benzo[1,3]dioxol-5-ylmethyl-{2-[2-(2-imidazol-1-yl-6-methyl-pyrimidin-4-yl)-pyrrolidin-1-yl]-ethyl}-amine [Compound 1]	–	–	–	–	–	–	–	–	–	–	–	–	–	–	–	–	–	–	–	–	EC50 (hiNOS): < 1 µM; EC50 (hnNOS): > 1 µM; EC50 (heNOS): > 10 µM; LPS Induced iNOS In Vivo, ED50 (LPS Induced iNOS): + ((+), ED50 <10)
